Test results reported in patent publication US20250171457A1, “NITROGEN-CONTAINING HETEROCYCLIC COMPOUND HAVING NRF2 ACTIVATION EFFECT” (CHUGAI SEIYAKU KABUSHIKI KAISHA, priority 2022, published 2025).

These compounds were tested on Nrf2 transcriptional activity (pARE-Luc reporter) in HepG2 cells (assay: In vitro Nrf2 transcriptional activity measurement by ARE-dependent reporter assay in HepG2 cell). Details: Homo sapiens; HepG2 cells transfected with pARE-Luc, 4 hours at 37° C.; luciferase activity of Example 1-54 or Example 17-23 at 3.75 μM defined as 100%.
Assay type: cell-based, human
Experimental: Test Example 1: In Vitro Nrf2 Transcriptional Activity Measurement by ARE-Dependent Reporter Assay in HepG2 Cell
A human liver cancer-derived cell line HepG2 was transfected with pGL4.37 vector (pARE-Luc, Promega Corp.) and incubated overnight at 37° C. in a humidified atmosphere containing 5% CO2. The cells were dissociated by trypsin treatment, inoculated to a 384-well plate supplemented with a test compound, and incubated at 37° C. for 4 hours. Then, Bright-Glo Reagent (Promega Corp.) was added to the plate, and luciferase activity was measured with Envision plate reader.
Luciferase activity obtained through the action of the compound of Example 1-54 or Example 17-23 at a concentration of 3.75 μM was defined as 100%. The luciferase activity of each well was converted to a response rate (%). The dose-response curve of the compound of each Example was prepared to calculate a 50% effective concentration (EC50).
For CO[C@@H]1CC2(CN(c3cc(Cl)c(C(=O)N4COc5c(cccc5-c5cc(N6C7CCC6COC7)c(C(=O)O)cc5F)C4)c(Cl)c3)C2)[C@H]1C (racemic) [Compound 1-86, 4-[3-[2,6-Dichloro-4-[rac-(6R,7R)-6-methoxy-7-methyl-2-azaspiro[3.3]heptan-2-yl]benzoyl]-2,4-dihydro-1,3-benzoxazin-8-yl]-5-fluoro-2-(3-oxa-8-azabicyclo[3.2.1]octan-8-yl)benzoic acid], the EC50 was 1.1 nM. CO[C@H]1CC2(CN(c3cc(Cl)c(C(=O)N4COc5c(cccc5-c5cc(N6C7CCC6COC7)c(C(=O)O)cc5F)C4)c(Cl)c3)C2)[C@H]1C (racemic) [Compound 1-87, 4-[3-[2,6-Dichloro-4-[rac-(6R,7S)-6-methoxy-7-methyl-2-azaspiro[3.3]heptan-2-yl]benzoyl]-2,4-dihydro-1,3-benzoxazin-8-yl]-5-fluoro-2-(3-oxa-8-azabicyclo[3.2.1]octan-8-yl)benzoic acid] gave an EC50 of 1 nM. CO[C@H]1C[C@H]2CC[C@@H](C1)N2c1cc(Cl)c(C(=O)N2COc3c(cccc3-c3cc(N4C5CCC4COC5)c(C(=O)O)cc3F)C2)c(Cl)c1 (racemic) [Compound 6-11, 4-[3-[2,6-Dichloro-4-[rac-(1R,3r,5S)-3-methoxy-8-azabicyclo[3.2.1]octan-8-yl]benzoyl]-2,4-dihydro-1,3-benzoxazin-8-yl]-5-fluoro-2-(3-oxa-8-azabicyclo[3.2.1]octan-8-yl)benzoic acid] showed an EC50 of 1.5 nM. CO[C@H]1C[C@H]2CN(c3cc(Cl)c(C(=O)N4COc5c(cccc5-c5cc(N6C7CCC6COC7)c(C(=O)O)cc5F)C4)c(Cl)c3)C[C@H]21 (racemic) [Compound 6-12, 4-[3-[2,6-Dichloro-4-[rac-(1R,5S,6S)-6-methoxy-3-azabicyclo[3.2.0]heptan-3-yl]benzoyl]-2,4-dihydro-1,3-benzoxazin-8-yl]-5-fluoro-2-(3-oxa-8-azabicyclo[3.2.1]octan-8-yl)benzoic acid] showed an EC50 of 3.9 nM. COC1CCC12CN(c1cc(Cl)c(C(=O)N3COc4c(cccc4-c4cc(N5C6CCC5COC6)c(C(=O)O)cc4F)C3)c(Cl)c1)C2 (racemic) [Compound 6-13, 4-[3-[2,6-Dichloro-4-(rac-7-methoxy-2-azaspiro[3.3]heptan-2-yl)benzoyl]-2,4-dihydro-1,3-benzoxazin-8-yl]-5-fluoro-2-(3-oxa-8-azabicyclo[3.2.1]octan-8-yl)benzoic acid] showed an EC50 of 3.8 nM. COCCN1CCN(c2cc(Cl)c(C(=O)N3COc4c(cccc4-c4cc(N5CCOCC5C#N)c(C(=O)O)cc4F)C3)c(Cl)c2)CC1 (racemic) [Compound 20-10, rac-2-(3-Cyanomorpholin-4-yl)-4-[3-[2,6-dichloro-4-[4-(2-methoxyethyl)piperazin-1-yl]benzoyl]-2,4-dihydro-1,3-benzoxazin-8-yl]-5-fluorobenzoic acid] gave an EC50 of 25 nM. Compound O=C(O)c1cc(F)c(-c2cccc3c2OCN(C(=O)c2c(Cl)cc(OC4CCOC4)cc2Cl)C3)cc1N1C2CCC1COC2 (stereo in doubt) [Compound 4-36, 4-[3-[2,6-Dichloro-4-[(3R)-oxolan-3-yl]oxybenzoyl]-2,4-dihydro-1,3-benzoxazin-8-yl]-5-fluoro-2-(3-oxa-8-azabicyclo[3.2.1]octan-8-yl)benzoic acid] has an EC50 of 8.7 nM. O=C(O)c1cc(F)c(-c2cccc3c2OCN(C(=O)c2c(Cl)cc(N4CC5(CCCO5)C4)cc2Cl)C3)cc1N1C2CCC1COC2 [Compound 1-1, 4-[3-[2,6-Dichloro-4-(5-oxa-2-azaspiro[3.4]octan-2-yl)benzoyl]-2,4-dihydro-1,3-benzoxazin-8-yl]-5-fluoro-2-(3-oxa-8-azabicyclo[3.2.1]octan-8-yl)benzoic acid] showed an EC50 of 2.8 nM. Compound O=C(O)c1cc(F)c(-c2cccc3c2OCN(C(=O)c2c(Cl)cc(N4CC5(CCO5)C4)cc2Cl)C3)cc1N1C2CCC1COC2 [Compound 1-2, 4-[3-[2,6-Dichloro-4-(1-oxa-6-azaspiro[3.3]heptan-6-yl)benzoyl]-2,4-dihydro-1,3-benzoxazin-8-yl]-5-fluoro-2-(3-oxa-8-azabicyclo[3.2.1]octan-8-yl)benzoic acid] has an EC50 of 8.6 nM. For O=C(O)c1cc(F)c(-c2cccc3c2OCN(C(=O)c2c(Cl)cc(N4CC5(CCOC5)C4)cc2Cl)C3)cc1N1C2CCC1COC2 [Compound 1-3, 4-[3-[2,6-Dichloro-4-(6-oxa-2-azaspiro[3.4]octan-2-yl)benzoyl]-2,4-dihydro-1,3-benzoxazin-8-yl]-5-fluoro-2-(3-oxa-8-azabicyclo[3.2.1]octan-8-yl)benzoic acid], the EC50 was 5.8 nM. O=C(O)c1cc(F)c(-c2cccc3c2OCN(C(=O)c2c(Cl)cc(N4C5COCC4C5)cc2Cl)C3)cc1N1C2CCC1COC2 [Compound 1-5, 4-[3-[2,6-Dichloro-4-(3-oxa-6-azabicyclo[3.1.1]heptan-6-yl)benzoyl]-2,4-dihydro-1,3-benzoxazin-8-yl]-5-fluoro-2-(3-oxa-8-azabicyclo[3.2.1]octan-8-yl)benzoic acid] showed an EC50 of 3.1 nM. Work on O=C(O)c1cc(F)c(-c2cccc3c2OCN(C(=O)c2c(Cl)cc(N4CC5(CC(O)C5)C4)cc2Cl)C3)cc1N1C2CCC1COC2 [Compound 1-6, 4-[3-[2,6-Dichloro-4-(6-hydroxy-2-azaspiro[3.3]heptan-2-yl)benzoyl]-2,4-dihydro-1,3-benzoxazin-8-yl]-5-fluoro-2-(3-oxa-8-azabicyclo[3.2.1]octan-8-yl)benzoic acid] yielded an EC50 of 9.6 nM. For O=C(O)c1cc(F)c(-c2cccc3c2OCN(C(=O)c2c(Cl)cc(N4CC5(C4)CC5(F)F)cc2Cl)C3)cc1N1C2CCC1COC2 [Compound 1-7, 4-[3-[2,6-Dichloro-4-(2,2-difluoro-5-azaspiro[2.3]hexan-5-yl)benzoyl]-2,4-dihydro-1,3-benzoxazin-8-yl]-5-fluoro-2-(3-oxa-8-azabicyclo[3.2.1]octan-8-yl)benzoic acid], the EC50 was 2 nM. COC1(C(F)F)CN(c2cc(Cl)c(C(=O)N3COc4c(cccc4-c4cc(N5C6CCC5COC6)c(C(=O)O)cc4F)C3)c(Cl)c2)C1 [Compound 1-8, 4-[3-[2,6-Dichloro-4-[3-(difluoromethyl)-3-methoxyazetidin-1-yl]benzoyl]-2,4-dihydro-1,3-benzoxazin-8-yl]-5-fluoro-2-(3-oxa-8-azabicyclo[3.2.1]octan-8-yl)benzoic acid] gave an EC50 of 2.2 nM. Work on COC1CN(c2cc(Cl)c(C(=O)N3COc4c(cccc4-c4cc(N5C6CCC5COC6)c(C(=O)O)cc4F)C3)c(Cl)c2)C1(C)C (centres unmarked) [Compound 1-9, 4-[3-[2,6-Dichloro-4-(3-methoxy-2,2-dimethylazetidin-1-yl)benzoyl]-2,4-dihydro-1,3-benzoxazin-8-yl]-5-fluoro-2-(3-oxa-8-azabicyclo[3.2.1]octan-8-yl)benzoic acid] yielded an EC50 of 4.6 nM. In the case of O=C(O)c1cc(F)c(-c2cccc3c2OCN(C(=O)c2c(Cl)cc(N4CC(OC(F)F)C4)cc2Cl)C3)cc1N1C2CCC1COC2 [Compound 1-10, 4-[3-[2,6-Dichloro-4-[3-(difluoromethoxy)azetidin-1-yl]benzoyl]-2,4-dihydro-1,3-benzoxazin-8-yl]-5-fluoro-2-(3-oxa-8-azabicyclo[3.2.1]octan-8-yl)benzoic acid], the EC50 is reported as 3.1 nM. For CC1(F)CN(c2cc(Cl)c(C(=O)N3COc4c(cccc4-c4cc(N5C6CCC5COC6)c(C(=O)O)cc4F)C3)c(Cl)c2)C1 [Compound 1-11, 4-[3-[2,6-Dichloro-4-(3-fluoro-3-methylazetidin-1-yl)benzoyl]-2,4-dihydro-1,3-benzoxazin-8-yl]-5-fluoro-2-(3-oxa-8-azabicyclo[3.2.1]octan-8-yl)benzoic acid], the EC50 was 2.1 nM.
